Data on 1 compound can be found in patent US20140161897A1, “METHOD FOR TREATING CANCERS, SUCH AS MYELOMA AND BREAST CANCER, WITH A COMBINATION OF TBL-12 AND VELCADE” (priority 2012, published 2014).

In this experiment the test system is human myeloma cells (U266, MM1, KMS1, and APR1). In words: MTT cell survival of IL-6 or TNFα stimulated myeloma cells. The conditions noted are these: U-266, with constant TBL-12 100 ug/ml, read-out: IC50 for Velcade, in combination with the TBL-12. In kind it is cell-based. The protocol: Different human myeloma cells (U266, MM1, KMS1, and APR1), which are commercially available were cultured in standard 96 well plates using standard methods to exponential growth face. The cells were stimulated by either 1L-6 (5 ng/ml), or TNFα (5 ng/ml).
The cells were then contacted with a combination of a constant concentration of TBL-12 (100 ug/ml), either by itself, or with various concentration of Velcade (2.5, 5, 10, and 15 ng). Cells which received neither TBL-12 nor Velcade were used as a control. Cell survival was measured, using an MTT assay, at 24, 48, and 72 hours.

Usually IC50 stands for the midpoint of a concentration-inhibition curve. Take `CC(C)C[C@H](NC(=O)[C@H](Cc1ccccc1)NC(=O)c1cnccn1)B(O)O` [Velcade, Bortezomib]: the IC50 is around 5 ng/mL.
